Assay results taken from patent publication US6737383B1, “Herbicidal oxadiazolidines” (priority 1999, dated 2004).

Tests used:
morningglory = assay: Test B pre/postemergence morningglory; assay type: in vivo, Ipomoea hederacea
How it was run: (§1)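 Test chemicals in a non-phytotoxic solvent mixture with surfactant were sprayed preemergence onto planted seeds and postemergence onto plants 2 to 18 cm tall (1- to 4-leaf stage). After twelve to sixteen days in a greenhouse, injury was visually rated against untreated controls from 0 (no effect) to 10 (complete control).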

surinam grass = assay: Test B pre/postemergence surinam grass; assay type: in vivo, Brachiaria decumbens
How it was run: as §1

pigweed = assay: Test B pre/postemergence pigweed; assay type: in vivo, Amaranthus retroflexus
How it was run: as §1

crabgrass = assay: Test B pre/postemergence crabgrass; assay type: in vivo, Digitaria sanguinalis
How it was run: as §1

purple nutsedge = assay: Test B pre/postemergence purple nutsedge; assay type: in vivo, Cyperus rotundus
How it was run: as §1

bamyardgrass = assay: Test B flood test barnyardgrass; assay type: in vivo, Echinochloa crus-galli; conditions: flood test species
How it was run: (§2)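 Read-out is a visual response score from 0 (no effect) to 10 (complete control), assigned by comparison with untreated controls. Treatment was applied at the 2-leaf stage, and plants stayed in the greenhouse for twelve to sixteen days before scoring.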

sugar beet = assay: Test B pre/postemergence sugar beet; assay type: in vivo, Beta vulgaris
How it was run: as §1

wild oat = assay: Test B pre/postemergence wild oat; assay type: in vivo, Avena fatua
How it was run: as §1

rape = assay: Test B pre/postemergence rape; assay type: in vivo, Brassica napus
How it was run: as §1

cocklebur = assay: Test B pre/postemergence cocklebur; assay type: in vivo, Xanthium strumarium
How it was run: as §1

velvetleaf = assay: Test B pre/postemergence velvetleaf; assay type: in vivo, Abutilon theophrasti
How it was run: as §1

soybean = assay: Test B pre/postemergence soybean; assay type: in vivo, Glycine max
How it was run: as §1

bedstraw = assay: Test B pre/postemergence bedstraw; assay type: in vivo, Galium aparine; conditions: Postemergence
How it was run: as §1

corn = assay: Test B pre/postemergence corn; assay type: in vivo, Zea mays
How it was run: as §1

blackgrass = assay: Test B pre/postemergence blackgrass; assay type: in vivo, Alopecurus myosuroides
How it was run: as §1

duck salad = assay: Test B flood test duck salad; assay type: in vivo, Heteranthera limosa; conditions: flood test species
How it was run: as §2

rice = assay: Test B flood test rice; assay type: in vivo, Oryza sativa; conditions: flood test species
How it was run: as §2

wheat = assay: Test B pre/postemergence wheat; assay type: in vivo, Triticum aestivum
How it was run: as §1

smallflower flatsedge = assay: Test B flood test smallflower flatsedge; assay type: in vivo, Cyperus difformis; conditions: flood test species
How it was run: as §2

giant foxtail = assay: Test B pre/postemergence giant foxtail; assay type: in vivo, Setaria faberii
How it was run: as §1

[1] = Postemergence, Rate 125 g/ha, scale 0 to 10, 0 is no effect, 10 is complete control
[2] = Postemergence, Rate 500 g/ha, scale 0 to 10, 0 is no effect, 10 is complete control
[3] = Preemergence, Rate 62 g/ha, scale of 0 to 10 where 0 is no effect and 10 is complete control
[4] = Preemergence, Rate 125 g/ha, scale 0 to 10, 0 is no effect, 10 is complete control
[5] = Preemergence, Rate 250 g/ha, scale 0 to 10, 0 is no effect, 10 is complete control
[6] = Preemergence, Rate 500 g/ha, scale 0 to 10, 0 is no effect, 10 is complete control
[7] = Rate 62 g/ha, Postemergence, scale 0 to 10 (0 no effect, 10 complete control)
[8] = Postemergence, Rate 250 g/ha, scale 0 to 10
[9] = Rate 62 g/ha, Pre-emergence, visual evaluation after twelve to sixteen days
[10] = Rate 125 g/ha, under heading Pre-emergence, visual evaluation after twelve to sixteen days
[11] = Rate 500 g/ha, Pre-emergence, scale 0 to 10 (0 no effect, 10 complete control)

SMILES: CC(C)C(=O)Cn1c(=O)on(C(=O)N(c2ccccc2)C(C)C)c1=O [Compound 485]
- Morningglory plant response rating (morningglory; [1]): 10
- Plant response rating, Morningglory (morningglory; [2]): 10
- Plant response rating, Morningglory (morningglory; [3]): 0
- Morningglory plant response rating (morningglory; [4]): 0
- Morningglory plant response rating (morningglory; [5]): 0
- Morningglory plant response rating (morningglory; [6]): 4
- Morningglory plant response rating (morningglory; [7]): 8
- B. signalgrass plant response rating (surinam grass; [1]): 0
- B. signalgrass plant response rating (surinam grass; Postemergence, Rate 250 g/ha, scale 0 to 10, 0 no effect, 10 complete control): 4
- Plant response rating, B. signalgrass (surinam grass; [2]): 5
- Plant response rating, B. signalgrass (surinam grass; [3]): 3
- B. signalgrass plant response rating (surinam grass; [4]): 5
- B. signalgrass plant response rating (surinam grass; [5]): 8
- B. signalgrass plant response rating (surinam grass; [6]): 8
- B. signalgrass plant response rating (surinam grass; [7]): 0
- Redroot pigweed plant response rating (pigweed; [1]): 0
- Plant response rating, Redroot pigweed (pigweed; [2]): 2
- Plant response rating, Redroot pigweed (pigweed; [3]): 1
- Redroot pigweed plant response rating (pigweed; [4]): 6
- Redroot pigweed plant response rating (pigweed; [6]): 9
- Redroot pigweed plant response rating (pigweed; [7]): 0
- Crabgrass plant response rating (crabgrass; [1]): 6
- Crabgrass plant response rating (crabgrass; [8]): 7
- Plant response rating, Crabgrass (crabgrass; [2]): 8
- Plant response rating, Crabgrass (crabgrass; [3]): 6
- Crabgrass plant response rating (crabgrass; [4]): 7
- Crabgrass plant response rating (crabgrass; [5]): 10
- Crabgrass plant response rating (crabgrass; [6]): 10
- Crabgrass plant response rating (crabgrass; [7]): 3
- Nutsedge plant response rating (purple nutsedge; [1]): 0
- Plant response rating, Nutsedge (purple nutsedge; [2]): 0
- Plant response rating, Nutsedge (purple nutsedge; [3]): 0
- Nutsedge plant response rating (purple nutsedge; [4]): 0
- Nutsedge plant response rating (purple nutsedge; [5]): 0
- Nutsedge plant response rating (purple nutsedge; [6]): 0
- Nutsedge plant response rating (purple nutsedge; [7]): 0
- Plant response rating, Barnyardgrass (0 to 10 scale, 0 is no effect, 10 is complete control) (bamyardgrass; [9]): 0
- Barnyardgrass plant response rating (0 to 10 scale, 0 is no effect, 10 is complete control) (bamyardgrass; [10]): 0
- Barnyardgrass plant response rating (bamyardgrass; [11]): 0
- Sugarbeets plant response rating (sugar beet; [1]): 0
- Plant response rating, Sugarbeets (sugar beet; [2]): 0
- Plant response rating, Sugarbeets (sugar beet; [3]): 0
- Sugarbeets plant response rating (sugar beet; [4]): 0
- Sugarbeets plant response rating (sugar beet; [5]): 0
- Sugarbeets plant response rating (sugar beet; [6]): 2
- Sugarbeets plant response rating (sugar beet; [7]): 0
- Wild oats plant response rating (wild oat; [1]): 0
- Plant response rating, Wild oats (wild oat; [2]): 4
- Plant response rating, Wild oats (wild oat; [3]): 2
- Wild oats plant response rating (wild oat; [4]): 5
- Wild oats plant response rating (wild oat; [5]): 6
- Wild oats plant response rating (wild oat; [6]): 8
- Wild oats plant response rating (wild oat; [7]): 0
- Rape plant response rating (rape; [1]): 0
- Plant response rating, Rape (rape; [2]): 0
- Plant response rating, Rape (rape; [3]): 0
- Rape plant response rating (rape; [4]): 0
- Rape plant response rating (rape; [5]): 0
- Rape plant response rating (rape; [6]): 2
- Rape plant response rating (rape; [7]): 0
- Cocklebur plant response rating (cocklebur; [1]): 0
- Cocklebur plant response rating (cocklebur; [8]): 0
- Plant response rating, Cocklebur (cocklebur; [2]): 0
- Plant response rating, Cocklebur (cocklebur; [3]): 0
- Cocklebur plant response rating (cocklebur; [4]): 0
- Cocklebur plant response rating (cocklebur; [5]): 0
- Cocklebur plant response rating (cocklebur; [6]): 0
- Cocklebur plant response rating (cocklebur; [7]): 0
- Velvetleaf plant response rating (velvetleaf; [1]): 0
- Plant response rating, Velvetleaf (velvetleaf; [2]): 4
- Plant response rating, Velvetleaf (velvetleaf; [3]): 0
- Velvetleaf plant response rating (velvetleaf; [4]): 0
- Velvetleaf plant response rating (velvetleaf; [5]): 0
- Velvetleaf plant response rating (velvetleaf; [6]): 3
- Velvetleaf plant response rating (velvetleaf; [7]): 0
- Soybean plant response rating (soybean; [1]): 4
- Plant response rating, Soybean (soybean; [2]): 5
- Plant response rating, Soybean (soybean; [3]): 0
- Soybean plant response rating (soybean; [4]): 0
- Soybean plant response rating (soybean; [5]): 0
- Soybean plant response rating (soybean; [6]): 0
- Soybean plant response rating (soybean; [7]): 2
- Bedstraw plant response rating (bedstraw; Rate 125 g/ha, scale 0 to 10, 0 is no effect, 10 is complete control): 0
- Bedstraw plant response rating (bedstraw; Rate 250 g/ha, scale 0 to 10): 2
- Plant response rating, Bedstraw (bedstraw; Rate 500 g/ha, scale 0 to 10, 0 is no effect, 10 is complete control): 6
- Bedstraw plant response rating (bedstraw; Rate 62 g/ha, scale 0 to 10 (0 no effect, 10 complete control)): 0
- Corn plant response rating (corn; [1]): 0
- Corn plant response rating (corn; [8]): 0
- Plant response rating, Corn (corn; [2]): 0
- Plant response rating, Corn (corn; [3]): 0
- Corn plant response rating (corn; [4]): 0
- Corn plant response rating (corn; [5]): 0
- Corn plant response rating (corn; [6]): 7
- Corn plant response rating (corn; [7]): 0
- Blackgrass plant response rating (blackgrass; [1]): 7
- Blackgrass plant response rating (blackgrass; [8]): 7
- Plant response rating, Blackgrass (blackgrass; [2]): 8
- Plant response rating, Blackgrass (blackgrass; [3]): 4
- Blackgrass plant response rating (blackgrass; [4]): 8
- Blackgrass plant response rating (blackgrass; [5]): 8
- Blackgrass plant response rating (blackgrass; [6]): 9
- Blackgrass plant response rating (blackgrass; [7]): 3
- Plant response rating, Ducksalad (0 to 10 scale, 0 is no effect, 10 is complete control) (duck salad; [9]): 0
- Ducksalad plant response rating (0 to 10 scale, 0 is no effect, 10 is complete control) (duck salad; [10]): 0
- Ducksalad plant response rating (duck salad; [11]): 0
- Plant response rating, Rice (0 to 10 scale, 0 is no effect, 10 is complete control) (rice; [9]): 0
- Rice plant response rating (0 to 10 scale, 0 is no effect, 10 is complete control) (rice; [10]): 0
- Rice plant response rating (rice; [11]): 0
- Wheat plant response rating (wheat; [1]): 0
- Plant response rating, Wheat (wheat; [2]): 5
- Plant response rating, Wheat (wheat; [3]): 0
- Wheat plant response rating (wheat; [4]): 2
- Wheat plant response rating (wheat; [5]): 3
- Wheat plant response rating (wheat; [6]): 5
- Wheat plant response rating (wheat; [7]): 0
- Plant response rating, S. Flatsedge (0 to 10 scale, 0 is no effect, 10 is complete control) (smallflower flatsedge; [9]): 0
- S. Flatsedge plant response rating (0 to 10 scale, 0 is no effect, 10 is complete control) (smallflower flatsedge; [10]): 0
- S. Flatsedge plant response rating (smallflower flatsedge; [11]): 0
- Giant foxtail plant response rating (giant foxtail; [1]): 7
- Plant response rating, Giant foxtail (giant foxtail; [2]): 8
- Plant response rating, Giant foxtail (giant foxtail; [3]): 7
- Giant foxtail plant response rating (giant foxtail; [4]): 8
- Giant foxtail plant response rating (giant foxtail; [5]): 10
- Giant foxtail plant response rating (giant foxtail; [6]): 10
- Giant foxtail plant response rating (giant foxtail; [7]): 5
